Test results taken from patent US4463007A, “Triazoloquinazolinones, and compositions and methods for treating allergic disorders with them” (BASF Aktiengesellschaft, priority 1981, dated 1984).

Tested on: PCA in rats
Test: Passive cutaneous anaphylaxis (PCA) in rats, anti-allergic action, oral administration
Assay type: in vivo, rat
Settings: for ED50: Rattus norvegicus, dose which reduces diameter of color patch by 50% relative to non-medicated controls, read-out: Inhibition of PCA in rats, ED 50%; for ED50 / R.A. (relative activity) / times more active than the comparative compound Pirquinozol: oral; for R.A. (relative activity): Pirquinozol = 1.00
Description: The anti-allergic action was tested on rats, using the passive cutaneous anaphylaxis (PCA) model.
Narcotized male rats (100 to 140 g) are sensitized by intradermal injection (into the shaved dorsal skin) of 0.1 ml of an ovalbumin antiserum. After a sensitization period of about 48 hours, the treatment (intraperitoneal or oral administration) is carried out with various dosages (10 animals/dose)of the test substances. 15-20 minutes after treatment, an antigen/Evans blue mixture (10 mg/kg of ovalbumin in 2% strength Evans blue solution) is injected intravenously into the test animals. 30 minutes later, the animals are sacrificed, the dorsal skin is removed and the diameter of the circular blue coloration is measured on the inner surface. The size of the color patches of untreated control animals can be standardized. Anti-allergic substances reduce the diameter of the color patch by an amount dependent on the dose. The ED 50% is quoted as the dose which reduces the diameter of the color patch by 50% relative to that of non-medicated control animals. In addition to the anti-allergic action, the acute toxicity was determined for intraperitoneal administration, using groups of 2 NMRI mice, each weighing 20-26 g, and for oral administration, using groups of 2 Sprague-Dawley rats, each weighing 120-150 g. The LD 50 was determined on groups of 10 NMRI mice, each weighing 20-26 g, after intraperitoneal administration. The post-observation period was 14 days.

| Structure (SMILES) | ED50 | activity in oral doses (in words) (oral doses of up to 100 mg/kg, PCA rats) | R.A. (relative activity) (PCA rats) | times more active than the comparative compound Pirquinozol (PCA rats) |
| --- | --- | --- | --- | --- |
| O=C(O)c1cc(=O)c2c(OCC(O)COc3cccc4oc(C(=O)O)cc(=O)c34)cccc2o1 [Cromolyne, reference compound] | > 100 mg/kg | inactive |  |  |
| CCOC(=O)c1nc2c3cc(C)ccc3n(C)c(=O)n2n1 [Example 25, Ethyl 6,9-dimethyl-1,2,4-triazolo[1,5-c]quinazolin-5-one-2-carboxylate] | 0.617 mg/kg |  | 1.92 |  |
| CCOC(=O)c1nc2c3cc(C)c(C)cc3n(CC)c(=O)n2n1 [Example 28, Ethyl 8,9-dimethyl-6-ethyl-1,2,4-triazolo[1,5-c]quinazolin-5-one-2-carboxylate] | 0.876 mg/kg |  | 1.36 |  |
| CCOC(=O)c1nc2c3cc(C)c(C)cc3n(C)c(=O)n2n1 [Example 27, Ethyl 6,8,9-trimethyl-1,2,4-triazolo[1,5-c]quinazolin-5-one-2-carboxylate] | 1 mg/kg |  | 1.19 | 1.2 times |
| CCOC(=O)c1nc2c3ccccc3n(CC)c(=O)n2n1 [Example 14, Ethyl 6-ethyl-1,2,4-triazolo[1,5-c]quinazolin-5-one-2-carboxylate] | 0.707 mg/kg |  | 1.68 |  |
| CCOC(=O)c1nc2c3cc(Cl)ccc3n(C)c(=O)n2n1 [Example 20, Ethyl 9-chloro-6-methyl-1,2,4-triazolo[1,5-c]quinazolin-5-one-2-carboxylate] | 0.723 mg/kg |  | 1.64 |  |
| CCOC(=O)c1nc2c3cc(C)ccc3n(CC)c(=O)n2n1 [Example 17, Ethyl 6-ethyl-9-methyl-1,2,4-triazolo[1,5-c]quinazolin-5-one-2-carboxylate] | 0.271 mg/kg |  | 4.39 | 4.4 times |
| CCOC(=O)c1nc2c3ccccc3n(C)c(=O)n2n1 [Example 13, Ethyl 6-methyl-1,2,4-triazolo[1,5-c]quinazolin-5-one-2-carboxylate] | 0.518 mg/kg |  | 2.29 |  |
| O=c1[nH]c2ccccc2c2cc(CO)nn12 [Pirquinozol, reference compound] | 1.19 mg/kg |  | 1.00 |  |
